Active and inactive are the calls of the source. The rule behind the calls is not given here.
Target: T1, Replication protein A 70 kDa DNA-binding subunit (Homo sapiens, UniProt P27694)
T1 sequence (P27694 whole entry): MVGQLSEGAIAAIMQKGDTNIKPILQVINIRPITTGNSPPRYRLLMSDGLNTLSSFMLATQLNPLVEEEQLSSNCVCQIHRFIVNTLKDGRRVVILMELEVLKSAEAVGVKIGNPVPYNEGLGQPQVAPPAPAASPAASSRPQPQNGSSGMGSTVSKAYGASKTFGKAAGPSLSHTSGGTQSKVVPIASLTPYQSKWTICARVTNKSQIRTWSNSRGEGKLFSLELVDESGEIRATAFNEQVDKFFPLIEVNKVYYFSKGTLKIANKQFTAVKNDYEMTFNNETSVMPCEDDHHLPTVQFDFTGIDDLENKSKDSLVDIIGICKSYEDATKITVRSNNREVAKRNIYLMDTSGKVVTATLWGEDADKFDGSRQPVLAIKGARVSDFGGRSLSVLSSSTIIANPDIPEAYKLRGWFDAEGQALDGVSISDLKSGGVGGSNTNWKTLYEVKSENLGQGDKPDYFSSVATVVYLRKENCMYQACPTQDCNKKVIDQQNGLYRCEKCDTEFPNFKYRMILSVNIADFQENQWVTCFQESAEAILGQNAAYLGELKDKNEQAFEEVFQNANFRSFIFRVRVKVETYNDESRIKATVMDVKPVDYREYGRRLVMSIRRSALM
Assay: Binding affinity to human RPA (1 to 422) containing RPA70N and RPA70NAB assessed as inhibition of interaction with FITC-Ahx-DFTADDLEELDTLAS-NH2 after 1 hr by fluorescence polarization anisotropy assay
With `O=C(O)c1sc2cc(-n3c(S)nnc3-c3ccc(Cl)c(Cl)c3)ccc2c1Cl` the Kd was 17 µM.
`O=C(O)c1sc2cc(-n3c(S)nnc3-c3ccc(Br)c(Cl)c3)ccc2c1Cl` gave a Kd of 10 µM.

Target: T1, Replication protein A 70 kDa DNA-binding subunit
Assay: Binding affinity to human RPA70N assessed as inhibition of interaction with FITC-Ahx-DFTADDLEELDTLAS-NH2 after 1 hr by fluorescence polarization anisotropy assay
For `Cc1cccc(-c2n[nH]c(=S)n2-c2ccc3c(Cl)c(C(=O)O)sc3c2)c1`, the Kd was 83 µM.
For `O=C(O)c1sc2cc(-n3c(-c4cccc(Oc5ccccc5)c4)n[nH]c3=S)ccc2c1Cl`, the Kd was 63 µM.
`Cc1ccc2c(Cl)c(-c3nnc(SCC(=O)O)n3-c3ccc(Cl)c(Cl)c3)sc2c1` showed a Kd of 18 µM.
In the case of `COc1ccc(-c2nnc(SCC(=O)O)n2-c2cccc(Cl)c2)cc1`, the Kd is reported as over 250 µM.
For `O=C(O)c1sc2cc(-n3c(S)nnc3-c3ccc(Br)cc3)ccc2c1Cl`, the Kd was 42 µM.
`O=C(O)CSc1nnc(-c2ccccc2Cl)n1-c1cccc(Cl)c1` showed a Kd of over 250 µM.
`O=C(O)CSc1nnc(-c2ccc3ccccc3c2)n1-c1ccc(Cl)c(Cl)c1` showed a Kd of 47 µM.
Work on `O=C(O)c1sc2cc(-n3c(S)nnc3-c3ccc(Cl)c(Cl)c3)ccc2c1Cl` yielded a Kd of 11 µM.
Compound `O=C(O)CSc1nnc(-c2ccc([N+](=O)[O-])cc2)n1-c1ccc(Cl)c(Cl)c1` has a Kd of 178 µM.
Work on `O=C(O)c1sc2cc(-n3c(S)nnc3-c3cccc(Br)c3)ccc2c1Cl` yielded a Kd of 58 µM.
In the case of `Cc1ccccc1-c1nnc(S)n1-c1ccc2cc(C(=O)O)sc2c1`, the Kd is reported as over 250 µM.
Compound `O=C(O)CSc1nnc(-c2cc3ccccc3s2)n1-c1ccc(Cl)c(Cl)c1` has a Kd of 58 µM.
`COc1ccc(-c2nnc(SCC(=O)O)n2-c2ccc(Cl)cc2)cc1` showed a Kd of over 250 µM.
With `Cc1cccc(-c2n[nH]c(=S)n2-c2ccc3c(Cl)c(C(=O)O)sc3c2)c1Br` the Kd was 48 µM.
Work on `O=C(O)c1sc2cc(-n3c(-c4ccc5ccccc5c4)n[nH]c3=S)ccc2c1Cl` yielded a Kd of 43 µM.
In the case of `O=C(O)c1sc2cc(Cl)ccc2c1Cl`, the Kd is reported as 627 µM.
Compound `O=C(O)c1sc2cc(-n3c(S)nnc3-c3ccccc3)ccc2c1Cl` has a Kd of 130 µM.
Compound `Clc1ccc(-c2nn[nH]n2)cc1` has a Kd of 1850 µM.
In the case of `O=C(O)CSc1nnc(-c2ccc(F)cc2)n1-c1cccc(Cl)c1`, the Kd is reported as over 250 µM.
Work on `O=C(O)CSc1nnc(-c2ccc(O)cc2)n1-c1ccc(Cl)c(Cl)c1` yielded a Kd of 233 µM.
Compound `O=C(O)CSc1nnc(-c2ccc(F)cc2)n1-c1ccc(Cl)cc1` has a Kd of over 250 µM.
With `O=C(O)c1cc2ccc(-n3c(-c4cccc(Br)c4)n[nH]c3=S)cc2s1` the Kd was 49 µM.
Compound `Cc1ccc(-c2nnc(S)n2-c2ccc3cc(C(=O)O)sc3c2)cc1` has a Kd of over 250 µM.
In the case of `O=C(O)c1cc2ccc(-n3c(S)nnc3-c3ccccc3)cc2s1`, the Kd is reported as over 250 µM.
`Cc1ccccc1-c1nnc(S)n1-c1ccc2c(Cl)c(C(=O)O)sc2c1` gave a Kd of 66 µM.
In the case of `O=C(O)c1sc2cc(-n3c(S)nnc3-c3ccc(Br)c(Cl)c3)ccc2c1Cl`, the Kd is reported as 11 µM.
`O=C(O)CSc1nnc(-c2sc3ccccc3c2Cl)n1-c1ccc(Cl)c(Cl)c1` showed a Kd of 46 µM.
For `O=C(O)c1cc2ccc(-n3c(-c4cc(Cl)cc(Cl)c4)n[nH]c3=S)cc2s1`, the Kd was 35 µM.
`Cc1cccc(-c2n[nH]c(=S)n2-c2ccc3cc(C(=O)O)sc3c2)c1` showed a Kd of over 250 µM.
Compound `O=C(O)c1sc2cc(-n3c(S)nnc3C3CCCCC3)ccc2c1Cl` has a Kd of 25 µM.
`O=C(O)c1cc2ccc(-n3c(-c4ccc(Br)cc4)n[nH]c3=S)cc2s1` showed a Kd of 71 µM.
`O=C(O)CSc1nnc(-c2sc3ccccc3c2Cl)n1-c1ccccc1` gave a Kd of 135 µM.
`Nc1ccc(-c2nnc(SCC(=O)O)n2-c2ccc(Cl)c(Cl)c2)cc1` gave a Kd of 109 µM.
Work on `Cc1cc(-c2nnc(S)n2-c2ccc3c(Cl)c(C(=O)O)sc3c2)ccc1Br` yielded a Kd of 31 µM.
`O=C(O)c1sc2cc(-n3c(-c4cc(Cl)cc(Cl)c4)n[nH]c3=S)ccc2c1Cl` gave a Kd of 15 µM.
`O=C(O)c1cc2ccc(-n3c(S)nnc3-c3ccc(Br)c(Cl)c3)cc2s1` gave a Kd of 12 µM.
`O=C(O)c1sc2cc(-n3c(-c4ccc(Cl)c(Br)c4)n[nH]c3=S)ccc2c1Cl` showed a Kd of 16 µM.
For `O=C(O)CSc1nnc(-c2ccccc2Br)n1-c1cccc(Cl)c1`, the Kd was over 250 µM.
In the case of `O=C(O)c1sc2cc(-n3c(S)nnc3-c3c[nH]c4ccccc34)ccc2c1Cl`, the Kd is reported as over 250 µM.
`Cc1ccccc1-c1nnc(SCC(=O)O)n1-c1cccc(Cl)c1` gave a Kd of over 250 µM.
With `O=C(O)c1cc2ccc(-n3c(S)nnc3-c3ccc(Cl)cc3)cc2s1` the Kd was 78 µM.
`O=C(O)c1sc2cc(-n3c(S)nnc3-c3ccc(Cl)cc3)ccc2c1Cl` showed a Kd of 52 µM.
In the case of `Cc1ccc(-c2n[nH]c(=S)n2-c2ccc3c(Cl)c(C(=O)O)sc3c2)cc1`, the Kd is reported as 92 µM.
`O=C(O)c1sc2cc(-n3c(S)nnc3-c3ccc(F)cc3)ccc2c1Cl` showed a Kd of 47 µM.
`COc1ccc(-c2nnc(SCC(=O)O)n2-c2ccc(Cl)c(Cl)c2)cc1` showed a Kd of 164 µM.
`O=C(O)c1cc2ccc(-n3c(-c4ccc(F)cc4)n[nH]c3=S)cc2s1` showed a Kd of over 250 µM.
Work on `O=C(O)c1cc2ccc(-n3c(S)nnc3-c3ccc(Cl)c(Cl)c3)cc2s1` yielded a Kd of 22 µM.
For `O=C(O)c1cc2ccc(-n3c(-c4cccc(Oc5ccccc5)c4)n[nH]c3=S)cc2s1`, the Kd was 104 µM.

Species: Homo sapiens
Assay: Inhibition of full length RPA (unknown origin) binding to ssDNA up to 100 uM preincubated for 5 mins prior to substrate addition measured after 30 mins by EMSA
With `O=C(O)c1sc2cc(-n3c(S)nnc3-c3ccc(Cl)c(Cl)c3)ccc2c1Cl` the inhibition was “inactive”.
With `O=C(O)c1sc2cc(-n3c(S)nnc3-c3ccc(Br)c(Cl)c3)ccc2c1Cl` the inhibition was “inactive”.

Target: T1, Replication protein A 70 kDa DNA-binding subunit
Assay: Binding affinity to human RPA70N expressed in Escherichia coli BL21 (DE3) assessed as inhibition of interaction with FITC-Ahx-DFTADDLEELDTLAS-NH2 after 1 hr by fluorescence polarization anisotropy assay
`CC(C)C1=C[C@]23CC[C@@H]4[C@](C)(CCC[C@@]4(C)C(=O)O)[C@H]2C[C@@H]1[C@@H](C(=O)O)[C@@H]3C(=O)O` gave a Kd of 18.3 µM.

Tested on: not listed separately
Assay: Inhibition of human RPA binding to [32P]-ssDNA overexpressed in Escherichia coli by EMSA
For `CCOc1ccc2cc(C3CN(C(=O)CCC(=O)O)N=C3c3ccc(Br)cc3)c(Cl)nc2c1` (centres undefined), the IC50 was 40 µM.

Source: ChEMBL document CHEMBL2406933, “Discovery of Protein-Protein Interaction Inhibitors of Replication Protein A” (ACS Med Chem Lett, 2013)
